In ChEMBL document CHEMBL1201862, “PubChem BioAssay data set” (2004):
Activity calls are given as the source filed them.

How the values were obtained:
[1] = inhibitors of firefly luciferase expression or activity, dose response, H4 neuroglioma cells, luminescence (AID 1990); type: functional, cell-based
[2] = tested on: Streptococcus sp. 'group A'; assay: growth inhibition of control SK(-) GAS strain, dose response, counter-screen for streptokinase expression inhibitor project, luminescence, kanamycin, BacTiterGlo, confirmation (AID 1900); type: functional, organism-based
[3] = Luminescence Cell-Based Dose Response HTS to Identify Inhibitors of 5'UTR Stem-Loop Driven Prion Protein mRNA Translation in H4 Neuroglioblastoma Cells. [Related pubchem assays: 1827 (Project Summary), 1813 (Primary HTS)]; type: functional
[4] = inhibitors of SNCA 5'UTR-driven reporter translation, confirmation, H4 neuroglioma cells, luminescence (AID 1988); type: functional, cell-based
Streptokinase A = target: T1, Streptokinase A (Streptococcus pyogenes serotype M1, UniProt P10520); assay: S. pyogenes streptokinase expression inhibitors, potency, dose response, plasminogen activation absorbance, OD405 (AID 1914); type: functional, Streptococcus pyogenes M1 GAS;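 note: secreted streptokinase activity via plasminogen activation per viability signal from cell pellet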
T1 sequence (P10520 whole entry): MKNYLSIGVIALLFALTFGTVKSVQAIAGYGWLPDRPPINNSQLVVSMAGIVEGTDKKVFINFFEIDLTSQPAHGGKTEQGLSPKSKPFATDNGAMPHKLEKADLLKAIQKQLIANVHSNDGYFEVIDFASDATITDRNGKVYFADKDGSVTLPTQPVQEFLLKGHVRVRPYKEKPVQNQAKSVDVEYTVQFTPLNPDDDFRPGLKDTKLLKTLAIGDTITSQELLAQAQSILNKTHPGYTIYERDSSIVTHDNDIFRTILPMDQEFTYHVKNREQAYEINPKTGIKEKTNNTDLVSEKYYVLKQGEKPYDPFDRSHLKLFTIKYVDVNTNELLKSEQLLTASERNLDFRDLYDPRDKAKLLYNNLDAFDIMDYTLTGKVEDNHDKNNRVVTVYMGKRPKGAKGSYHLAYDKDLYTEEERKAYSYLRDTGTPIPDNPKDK

Streptococcus = assay: Group A Streptococcus viability loss, dose response, counter-screen for streptokinase expression inhibitor project, luminescence, BacTiterGlo (AID 1915); type: functional, organism-based;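 note: potency for reduction of bacterial viability or growth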
[5] = target: T2, Replicative DNA helicase DnaB (Mycobacterium tuberculosis, UniProt P9WMR3); assay: DnaB intein splicing inhibitors, dose response, biochemical, cell-free fluorescence (AID 449749); type: functional
T2 sequence (P9WMR3 whole entry): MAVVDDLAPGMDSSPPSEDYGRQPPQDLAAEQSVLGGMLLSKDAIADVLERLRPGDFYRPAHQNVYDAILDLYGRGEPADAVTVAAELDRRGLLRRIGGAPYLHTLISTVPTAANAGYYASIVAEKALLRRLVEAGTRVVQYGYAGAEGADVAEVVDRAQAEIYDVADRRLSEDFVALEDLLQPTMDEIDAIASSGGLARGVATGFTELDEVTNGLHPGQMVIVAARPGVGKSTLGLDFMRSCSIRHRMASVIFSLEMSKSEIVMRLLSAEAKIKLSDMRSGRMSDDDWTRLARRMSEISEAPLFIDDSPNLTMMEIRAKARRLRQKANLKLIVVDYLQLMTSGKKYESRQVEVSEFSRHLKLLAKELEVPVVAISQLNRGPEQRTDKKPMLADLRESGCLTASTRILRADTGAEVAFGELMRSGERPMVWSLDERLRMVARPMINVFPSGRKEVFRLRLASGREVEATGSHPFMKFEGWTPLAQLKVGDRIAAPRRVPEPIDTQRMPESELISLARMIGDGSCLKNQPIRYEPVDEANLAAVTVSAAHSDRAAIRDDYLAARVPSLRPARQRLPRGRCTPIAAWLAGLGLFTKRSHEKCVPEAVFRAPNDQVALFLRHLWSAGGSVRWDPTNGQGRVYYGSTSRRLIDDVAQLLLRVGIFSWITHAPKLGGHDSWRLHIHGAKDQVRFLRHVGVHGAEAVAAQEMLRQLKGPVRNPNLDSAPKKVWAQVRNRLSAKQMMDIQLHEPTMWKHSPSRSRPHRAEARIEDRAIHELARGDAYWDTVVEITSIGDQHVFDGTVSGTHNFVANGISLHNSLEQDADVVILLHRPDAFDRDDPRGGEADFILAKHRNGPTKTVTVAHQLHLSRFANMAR

[6] = target: Heat shock protein HSP 90-alpha (Homo sapiens, UniProt P07900); type: functional, organism-based
Protein RecA = target: T3, Protein RecA (Mycobacterium tuberculosis, UniProt P9WHJ3); assay: Fluorescence Cell-Free Homogeneous Dose Retest to Identify Inhibitors of RecA-Intein Splicing Activity. [Related pubchem assays (depositor defined):AID2097, AID2223, AID489010, AID492950]; type: functional
T3 sequence (P9WHJ3 whole entry): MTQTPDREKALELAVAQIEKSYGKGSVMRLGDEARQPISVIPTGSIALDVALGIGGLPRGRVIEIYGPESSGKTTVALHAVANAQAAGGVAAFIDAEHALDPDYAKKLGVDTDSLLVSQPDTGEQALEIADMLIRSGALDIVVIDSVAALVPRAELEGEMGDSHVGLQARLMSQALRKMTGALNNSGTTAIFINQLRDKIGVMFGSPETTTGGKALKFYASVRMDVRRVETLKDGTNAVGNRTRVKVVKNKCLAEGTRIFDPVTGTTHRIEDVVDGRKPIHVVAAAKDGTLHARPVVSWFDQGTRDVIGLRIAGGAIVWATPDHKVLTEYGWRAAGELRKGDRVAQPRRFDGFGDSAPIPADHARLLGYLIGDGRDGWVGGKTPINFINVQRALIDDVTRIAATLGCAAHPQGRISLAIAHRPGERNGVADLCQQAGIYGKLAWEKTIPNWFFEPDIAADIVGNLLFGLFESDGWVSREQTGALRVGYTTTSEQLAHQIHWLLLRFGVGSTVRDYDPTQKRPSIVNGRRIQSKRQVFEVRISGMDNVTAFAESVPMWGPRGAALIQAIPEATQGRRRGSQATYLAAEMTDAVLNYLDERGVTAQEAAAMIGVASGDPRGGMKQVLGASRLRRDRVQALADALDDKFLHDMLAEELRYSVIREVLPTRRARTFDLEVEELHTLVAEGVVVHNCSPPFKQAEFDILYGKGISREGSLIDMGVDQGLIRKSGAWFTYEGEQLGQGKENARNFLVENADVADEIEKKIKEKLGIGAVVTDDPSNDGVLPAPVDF

INS1 = assay: beta cell apoptosis inhibitors, cytokine rescue, dose response, luminescence, retest (AID 449756); type: functional, cell-based; conditions: Rattus norvegicus;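 note: cell death triggered by IL-1 beta plus TNF-alpha plus IFN-gamma mixture; protective hits raise ATP signal compared with cytokine alone wells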
[7] = growth suppression of PTEN-null colon cells, dose response, cell-based, HCT116 PTEN knockout (AID 1047); type: functional;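 note: HCT116 colon tumor cells with PTEN knocked out; cells exposed to compound for 60 hours before readout; potency for loss of cell viability measured by luminescence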
[8] = growth suppression of beta-catenin-knockout colon cells, dose response, cell-based, HCT116, human colon tumor (AID 1045); type: functional;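 note: HCT116 colon tumor cells with beta catenin knocked out; cells exposed to compound for 60 hours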
[9] = target: T4, RNA-binding protein pos-1 (Caenorhabditis elegans, UniProt G5EF15); assay: inhibitors of POS-1/mex-3 RNA binding, dose response, biochemical, fluorescence polarization (AID 1964);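 note: purified POS-1 fused to maltose binding protein made in E. coli; potency of compounds blocking POS-1 binding to fluorescent RNA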
T4 sequence (G5EF15 whole entry): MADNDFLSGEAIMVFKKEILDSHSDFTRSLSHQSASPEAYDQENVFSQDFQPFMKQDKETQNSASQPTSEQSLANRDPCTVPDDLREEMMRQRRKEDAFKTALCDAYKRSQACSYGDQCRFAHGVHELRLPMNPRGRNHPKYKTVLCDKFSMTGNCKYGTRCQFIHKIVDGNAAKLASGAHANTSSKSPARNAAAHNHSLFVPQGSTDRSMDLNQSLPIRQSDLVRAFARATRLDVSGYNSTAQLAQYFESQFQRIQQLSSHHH

[10] = target: T5, Zinc finger protein mex-5 (Caenorhabditis elegans, UniProt Q9XUB2); assay: MEX-5/TCR-2 RNA interaction inhibitors, dose response, biochemical, C. elegans, fluorescence polarization (AID 1960)
T5 sequence (Q9XUB2 whole entry): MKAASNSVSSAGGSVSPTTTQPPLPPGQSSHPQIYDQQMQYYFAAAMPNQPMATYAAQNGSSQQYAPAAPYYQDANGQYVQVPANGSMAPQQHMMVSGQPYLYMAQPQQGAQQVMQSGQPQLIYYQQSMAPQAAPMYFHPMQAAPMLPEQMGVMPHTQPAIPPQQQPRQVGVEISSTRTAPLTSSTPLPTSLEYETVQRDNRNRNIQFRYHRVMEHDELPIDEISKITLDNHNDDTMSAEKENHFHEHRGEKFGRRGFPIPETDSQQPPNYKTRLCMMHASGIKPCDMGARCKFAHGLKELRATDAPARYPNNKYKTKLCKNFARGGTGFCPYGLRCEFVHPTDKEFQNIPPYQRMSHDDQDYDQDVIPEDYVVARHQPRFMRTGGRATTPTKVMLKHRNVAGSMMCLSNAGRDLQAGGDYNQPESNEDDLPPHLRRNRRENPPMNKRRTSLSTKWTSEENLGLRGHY

[11] = HEp-2 cell cytotoxicity, dose response, cytotoxicity control for RSV inhibitor project, HTS (AID 2410); type: functional; conditions: human respiratory syncytial virus
[12] = P. falciparum Dd2 growth inhibitors, dose response, SYBR Green, cherry-picked samples (AID 1159567); type: functional, cell-based
[13] = Luminescence Cell-Based Dose Retest to Confirm Inhibitors of Cancer Stem Cells. [Related pubchem assays (depositor defined):AID2717, AID2721]; type: functional; conditions: Homo sapiens
Fatty acid synthase [14] = target: T6, Fatty acid synthase (Homo sapiens, UniProt P49327); assay: FAS thioesterase domain inhibitors, dose response, biochemical, endpoint fluorescence intensity, uHTS hits (AID 624327); type: functional;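 note: fluorescence from hydrolysis of an O-methyl fluorescein acyl ester substrate by the enzyme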
Fatty acid synthase [15] = target: T6, Fatty acid synthase; assay: FAS thioesterase domain inhibitors, dose response, biochemical, kinetic fluorescence intensity (AID 624326); type: functional;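 note: rate of fluorescence rise from hydrolysis of a fluorogenic O-methyl fluorescein ester substrate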
Cytochrome P450 2C9 = Cytochrome P450 2C9 (Homo sapiens, UniProt P11712)
[16] = inhibitors of intracellular T. cruzi replication, confirmation, NIH3T3 host cells, beta-gal luminescence (AID 2044); type: functional, cell-based;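 note: intracellular parasites grown in NIH/3T3 mouse fibroblasts as host cells; luminescent beta-galactosidase reporter signal from transgenic T. cruzi replicating inside host cells; inhibitors lower the luminescence signal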
[17] = cytotoxicity toward NIH3T3 fibroblasts, dose response, counter-screen, cell-based, ATP luminescence, mouse fibroblasts (AID 2010); type: functional;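 note: cells exposed to compound for about 90 hours before reading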

T6 sequence (P49327 whole entry, the tested form may be a part): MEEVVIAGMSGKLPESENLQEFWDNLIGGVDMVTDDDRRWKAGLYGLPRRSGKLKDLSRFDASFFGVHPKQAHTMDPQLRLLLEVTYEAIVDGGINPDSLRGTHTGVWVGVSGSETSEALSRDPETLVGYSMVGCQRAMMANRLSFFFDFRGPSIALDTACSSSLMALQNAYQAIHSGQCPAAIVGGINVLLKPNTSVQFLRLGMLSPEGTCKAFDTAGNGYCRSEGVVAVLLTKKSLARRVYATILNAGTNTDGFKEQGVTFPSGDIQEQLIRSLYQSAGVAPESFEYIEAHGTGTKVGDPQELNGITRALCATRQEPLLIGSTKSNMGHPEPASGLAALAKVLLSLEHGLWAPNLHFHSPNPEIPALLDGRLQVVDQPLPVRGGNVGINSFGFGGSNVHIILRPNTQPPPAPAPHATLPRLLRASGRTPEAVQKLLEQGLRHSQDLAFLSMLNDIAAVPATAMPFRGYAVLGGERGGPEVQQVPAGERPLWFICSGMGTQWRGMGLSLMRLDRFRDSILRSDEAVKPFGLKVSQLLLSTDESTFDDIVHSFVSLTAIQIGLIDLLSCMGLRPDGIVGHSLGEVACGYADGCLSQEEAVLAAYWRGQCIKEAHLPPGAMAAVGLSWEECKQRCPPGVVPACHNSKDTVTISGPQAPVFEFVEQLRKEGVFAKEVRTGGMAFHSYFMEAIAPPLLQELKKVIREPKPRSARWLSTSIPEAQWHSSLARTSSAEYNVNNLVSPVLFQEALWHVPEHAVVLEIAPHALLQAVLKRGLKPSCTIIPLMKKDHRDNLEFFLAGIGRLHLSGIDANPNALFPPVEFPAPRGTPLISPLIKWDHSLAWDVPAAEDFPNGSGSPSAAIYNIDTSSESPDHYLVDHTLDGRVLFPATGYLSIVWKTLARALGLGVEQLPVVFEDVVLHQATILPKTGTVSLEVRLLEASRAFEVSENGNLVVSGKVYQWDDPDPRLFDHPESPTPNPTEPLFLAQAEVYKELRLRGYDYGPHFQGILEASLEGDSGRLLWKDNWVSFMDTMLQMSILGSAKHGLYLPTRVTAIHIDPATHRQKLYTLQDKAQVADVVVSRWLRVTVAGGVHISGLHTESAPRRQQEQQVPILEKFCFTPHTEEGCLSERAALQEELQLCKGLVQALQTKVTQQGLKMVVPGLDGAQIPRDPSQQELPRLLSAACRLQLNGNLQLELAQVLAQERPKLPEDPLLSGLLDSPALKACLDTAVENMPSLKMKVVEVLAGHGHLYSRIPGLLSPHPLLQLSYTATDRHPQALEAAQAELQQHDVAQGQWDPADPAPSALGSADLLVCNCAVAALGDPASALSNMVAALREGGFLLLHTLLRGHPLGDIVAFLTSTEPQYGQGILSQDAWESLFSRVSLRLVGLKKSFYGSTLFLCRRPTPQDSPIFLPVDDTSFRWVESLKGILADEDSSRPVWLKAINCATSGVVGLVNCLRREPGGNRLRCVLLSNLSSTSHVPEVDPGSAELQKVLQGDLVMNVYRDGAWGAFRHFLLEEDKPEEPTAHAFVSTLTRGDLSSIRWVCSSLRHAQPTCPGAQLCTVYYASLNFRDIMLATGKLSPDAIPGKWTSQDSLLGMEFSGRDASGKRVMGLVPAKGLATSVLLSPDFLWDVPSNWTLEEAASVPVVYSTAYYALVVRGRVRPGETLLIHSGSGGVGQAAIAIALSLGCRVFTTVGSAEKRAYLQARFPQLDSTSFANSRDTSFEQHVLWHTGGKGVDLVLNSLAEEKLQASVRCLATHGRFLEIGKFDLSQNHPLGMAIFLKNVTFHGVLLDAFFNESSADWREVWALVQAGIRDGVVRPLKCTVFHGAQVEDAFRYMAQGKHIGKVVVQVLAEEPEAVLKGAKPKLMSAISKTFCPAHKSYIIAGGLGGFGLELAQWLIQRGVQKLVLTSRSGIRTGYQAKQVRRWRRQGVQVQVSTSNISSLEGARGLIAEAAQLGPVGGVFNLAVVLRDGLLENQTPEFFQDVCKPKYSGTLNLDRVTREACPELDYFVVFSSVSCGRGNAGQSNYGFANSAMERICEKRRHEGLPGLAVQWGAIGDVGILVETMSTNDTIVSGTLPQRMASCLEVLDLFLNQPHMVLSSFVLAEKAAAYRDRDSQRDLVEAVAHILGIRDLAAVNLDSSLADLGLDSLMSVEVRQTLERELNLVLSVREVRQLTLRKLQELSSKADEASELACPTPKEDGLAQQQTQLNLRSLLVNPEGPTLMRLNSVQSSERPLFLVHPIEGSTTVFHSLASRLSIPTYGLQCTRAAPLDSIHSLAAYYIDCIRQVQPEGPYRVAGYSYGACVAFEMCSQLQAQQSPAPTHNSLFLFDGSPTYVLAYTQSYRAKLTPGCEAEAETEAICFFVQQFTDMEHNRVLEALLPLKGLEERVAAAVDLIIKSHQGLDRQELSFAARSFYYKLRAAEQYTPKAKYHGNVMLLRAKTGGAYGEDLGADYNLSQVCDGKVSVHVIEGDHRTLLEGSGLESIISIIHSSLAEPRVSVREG
Sequence of Cytochrome P450 2C9 (P11712 whole entry): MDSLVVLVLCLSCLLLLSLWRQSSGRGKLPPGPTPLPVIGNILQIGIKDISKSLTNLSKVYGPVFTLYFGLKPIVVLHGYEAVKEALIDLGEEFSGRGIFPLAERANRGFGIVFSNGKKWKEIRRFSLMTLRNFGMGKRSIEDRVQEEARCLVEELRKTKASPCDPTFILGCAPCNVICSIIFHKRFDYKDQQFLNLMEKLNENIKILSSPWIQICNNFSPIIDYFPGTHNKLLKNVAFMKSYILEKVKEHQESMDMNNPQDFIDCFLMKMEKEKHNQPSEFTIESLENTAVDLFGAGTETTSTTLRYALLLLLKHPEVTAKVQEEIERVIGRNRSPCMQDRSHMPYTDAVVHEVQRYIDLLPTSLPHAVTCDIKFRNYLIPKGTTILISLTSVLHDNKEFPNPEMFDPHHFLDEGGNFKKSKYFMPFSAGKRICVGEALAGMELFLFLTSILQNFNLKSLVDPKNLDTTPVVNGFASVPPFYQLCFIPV

SMILES: O=Nc1c(O)c2ccccc2c2ccccc12
- EC50 [1]: 8.1 µM (active)
- EC50 [2]: 1.68 µM (active)
- EC50 [3]: > 120 µM (not active)
- EC50 [4]: > 120 µM (not active)
- EC50 (Streptokinase A): 7.11 µM (active)
- EC50 (Streptococcus): 10.8 µM (active)
- AC50 [5]: 4.39 µM (active)
- AC50 [6]: 1.03 µM (active)
- EC50 (Protein RecA): 5.3 µM (active)
- AC50 (INS1): 7.86 µM (active)

SMILES: COc1cccc(-c2nc(Oc3cc(C)cc(C)c3)c3ccccc3n2)c1O
- EC50 [7]: 8.12 µM (active)
- EC50 [8]: 13.7 µM (active)

SMILES: N#C/C(=C/c1ccc(CNS(=O)(=O)c2ccccc2)o1)C(=O)NCc1ccccc1
- EC50 [9]: > 300 µM (not active)
- EC50 [10]: > 300 µM (not active)

SMILES: COc1ccc(/N=C/c2cc3c(cc2O)OC(N)=C(C#N)C3c2ccccc2)cc1 (stereo not drawn)
- CC50 [11]: 8.02 µM (active)
- EC50 [9]: > 300 µM (not active)
- EC50 [10]: > 300 µM (not active)

SMILES: C[C@H](CO)N1C[C@H](C)[C@H](CN(C)S(=O)(=O)c2cccs2)Oc2ccc(NC(=O)Cc3cn(C)c4ccccc34)cc2C1=O
- AC50 [12]: 5.02 µM (active)

SMILES: COc1ccc(S(=O)(=O)C(C#N)c2nc3ccccc3nc2N2CCC(C)CC2)cc1 (stereo not drawn)
- EC50 [9]: 6.4 µM (active)
- EC50 [10]: 8.74 µM (active)

SMILES: CC(C)(C)c1cc(NCc2ccccn2)n2ncc(-c3ccccc3)c2n1
- EC50 [2]: 0.722 µM (active)
- EC50 (Streptokinase A): 30 µM (active)
- EC50 (Streptococcus): 13.8 µM (active)
- AC50 [13]: 6.82 µM (active)
- AC50 [6]: 1.63 µM (active)

SMILES: C/C=C/c1ccc2n(c1=O)C[C@@H]1[C@@H](CO)[C@H](C(=O)N3CCC(Cc4ccccc4)CC3)N(CCC)[C@H]21.C/C=C\c1ccc2n(c1=O)C[C@@H]1[C@@H](CO)[C@H](C(=O)N3CCC(Cc4ccccc4)CC3)N(CCC)[C@H]21
- AC50 [12]: 4.32 µM (active)

SMILES: O=C(c1c[nH]c(C(=O)C(Cl)(Cl)Cl)c1)c1ccccc1Cl
- EC50 [7]: 26.5 µM (active)
- EC50 [8]: 24.9 µM (active)
- AC50 [5]: 7.85 µM (active)
- EC50 (Protein RecA): 6.27 µM (active)

SMILES: O=C1C=CC(=O)C2C1C1(Cl)C(Cl)=C(Cl)C2(Cl)C1(Cl)Cl (stereo not drawn)
- AC50 [6]: 7.83 µM (active)
- IC50 (Fatty acid synthase [14]): 14.8 µM (active)
- IC50 (Fatty acid synthase [15]): 13.8 µM (active)

SMILES: COc1cc(/C=N/O)cc(Br)c1OCc1cccc(Cl)c1
- AC50 [13]: 5.56 µM (active)
- AC50 [6]: 7.99 µM (active)
- AC50 (Cytochrome P450 2C9): inconclusive

SMILES: O=C(CCC(=O)CCN1CCCCC1)CCN1CCCCC1
- EC50 [7]: 33.1 µM (active)
- EC50 [8]: 32.6 µM (active)

SMILES: COc1ccc2c3c([nH]c2c1)[C@@H](CO)N(Cc1nccs1)CC31CCN(Cc2nccs2)CC1
- AC50 [12]: 4.94 µM (active)

SMILES: Cc1cccn2c(=O)c3cc(C(=O)NC4CCCCC4)c(=N)n(Cc4ccccc4)c3nc12
- EC50 [9]: 25.9 µM (active)
- EC50 [10]: 8.47 µM (active)
- EC50 [16]: 1.63 µM (active)
- EC50 [17]: > 60 µM (not active)
